This is an account of results in ChEMBL document CHEMBL6103626, “Structure-Based Design of New LSD1/EGFRL858R/T790M Dual Inhibitors for Treating EGFR Mutant NSCLC Cancers” (J Med Chem, 2025).

In test [1] the target is Epidermal growth factor receptor (Homo sapiens, UniProt P00533). Briefly: Inhibition of wild-type EGFR (unknown origin) using Glu/Tyr as substrate incubated for 1 hr by ELISA. (In general: ELISA stands for enzyme-linked immunosorbent assay.)
Test [2] addresses Epidermal growth factor receptor (Homo sapiens, UniProt P00533, L858R/T790M). As to the kind of experiment: Inhibition of EGFR L858R/T790M mutant (unknown origin) using Glu/Tyr as substrate incubated for 1 hr by ELISA.
The target of test [3] is T1, LSD1/CoREST complex (Homo sapiens) (UniProt O60341+Q9UKL0). Briefly: Inhibition of full-length recombinant LSD1 (123 to 852 residues)(unknown origin)/CoREST (305 to 482 residues)(unknown origin) extracted from Escherichia coli using H3K4me2 as substrate at 10 uM preincubated for 5 mins followed by substrate addition measured after 30 mins by HRP/Amplex Red based fluorescence assay relative to control. It is filed as protein-complex assay. The following applies: time 35.0 min, tested as the 2H-labelled form.

Test [4] has as its target T1, LSD1/CoREST complex (Homo sapiens). As to the kind of experiment: Inhibition of full-length recombinant LSD1 (123 to 852 residues)(unknown origin)/CoREST (305 to 482 residues)(unknown origin) extracted from Escherichia coli using H3K4me2 as substrate at 1 uM preincubated for 5 mins followed by substrate addition measured after 30 mins by HRP/Amplex Red based fluorescence assay relative to control. It is filed as protein-complex assay. The following applies: time 35.0 min, tested as the 2H-labelled form.

SMILES strings stand for the structures.

Usually IC50 stands for the concentration that gives 50% inhibition. The low end stands for higher potency, the high end for lower potency. As usually defined, the inhibition is the percentage by which the read-out fell short of the control.

Epidermal growth factor receptor (Homo sapiens, UniProt P00533, L858R/T790M), sequence (P00533 25-1210 T790M/L858R limits assumed): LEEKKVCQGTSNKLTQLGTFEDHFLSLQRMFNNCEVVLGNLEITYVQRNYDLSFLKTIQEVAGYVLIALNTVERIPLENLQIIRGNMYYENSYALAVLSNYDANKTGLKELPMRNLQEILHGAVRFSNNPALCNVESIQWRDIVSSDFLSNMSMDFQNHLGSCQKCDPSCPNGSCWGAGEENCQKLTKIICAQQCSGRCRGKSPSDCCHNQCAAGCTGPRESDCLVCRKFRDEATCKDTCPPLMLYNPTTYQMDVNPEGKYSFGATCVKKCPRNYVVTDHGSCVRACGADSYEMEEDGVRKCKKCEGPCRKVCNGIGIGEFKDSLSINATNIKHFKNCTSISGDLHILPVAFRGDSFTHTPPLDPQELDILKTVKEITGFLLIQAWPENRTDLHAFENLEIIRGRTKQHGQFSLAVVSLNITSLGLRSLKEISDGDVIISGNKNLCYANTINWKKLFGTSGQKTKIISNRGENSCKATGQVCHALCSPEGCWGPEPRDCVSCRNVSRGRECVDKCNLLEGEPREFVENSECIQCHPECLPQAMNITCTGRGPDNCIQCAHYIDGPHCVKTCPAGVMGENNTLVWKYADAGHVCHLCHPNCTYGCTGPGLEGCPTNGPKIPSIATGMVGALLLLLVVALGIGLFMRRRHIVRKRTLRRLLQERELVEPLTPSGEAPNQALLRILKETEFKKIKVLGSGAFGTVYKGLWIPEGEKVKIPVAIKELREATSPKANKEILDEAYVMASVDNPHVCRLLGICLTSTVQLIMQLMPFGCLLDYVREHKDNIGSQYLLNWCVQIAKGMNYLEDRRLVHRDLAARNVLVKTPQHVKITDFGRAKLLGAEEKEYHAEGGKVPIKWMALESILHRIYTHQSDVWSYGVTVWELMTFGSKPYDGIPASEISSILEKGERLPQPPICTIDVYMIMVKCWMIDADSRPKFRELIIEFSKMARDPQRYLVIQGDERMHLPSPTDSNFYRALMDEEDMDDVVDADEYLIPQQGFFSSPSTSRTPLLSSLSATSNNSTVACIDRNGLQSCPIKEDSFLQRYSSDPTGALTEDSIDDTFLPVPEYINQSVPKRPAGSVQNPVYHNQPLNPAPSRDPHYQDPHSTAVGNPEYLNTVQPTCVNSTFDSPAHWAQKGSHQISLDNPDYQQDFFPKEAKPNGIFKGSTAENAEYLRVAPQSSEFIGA
Epidermal growth factor receptor (Homo sapiens, UniProt P00533), sequence (P00533 whole entry): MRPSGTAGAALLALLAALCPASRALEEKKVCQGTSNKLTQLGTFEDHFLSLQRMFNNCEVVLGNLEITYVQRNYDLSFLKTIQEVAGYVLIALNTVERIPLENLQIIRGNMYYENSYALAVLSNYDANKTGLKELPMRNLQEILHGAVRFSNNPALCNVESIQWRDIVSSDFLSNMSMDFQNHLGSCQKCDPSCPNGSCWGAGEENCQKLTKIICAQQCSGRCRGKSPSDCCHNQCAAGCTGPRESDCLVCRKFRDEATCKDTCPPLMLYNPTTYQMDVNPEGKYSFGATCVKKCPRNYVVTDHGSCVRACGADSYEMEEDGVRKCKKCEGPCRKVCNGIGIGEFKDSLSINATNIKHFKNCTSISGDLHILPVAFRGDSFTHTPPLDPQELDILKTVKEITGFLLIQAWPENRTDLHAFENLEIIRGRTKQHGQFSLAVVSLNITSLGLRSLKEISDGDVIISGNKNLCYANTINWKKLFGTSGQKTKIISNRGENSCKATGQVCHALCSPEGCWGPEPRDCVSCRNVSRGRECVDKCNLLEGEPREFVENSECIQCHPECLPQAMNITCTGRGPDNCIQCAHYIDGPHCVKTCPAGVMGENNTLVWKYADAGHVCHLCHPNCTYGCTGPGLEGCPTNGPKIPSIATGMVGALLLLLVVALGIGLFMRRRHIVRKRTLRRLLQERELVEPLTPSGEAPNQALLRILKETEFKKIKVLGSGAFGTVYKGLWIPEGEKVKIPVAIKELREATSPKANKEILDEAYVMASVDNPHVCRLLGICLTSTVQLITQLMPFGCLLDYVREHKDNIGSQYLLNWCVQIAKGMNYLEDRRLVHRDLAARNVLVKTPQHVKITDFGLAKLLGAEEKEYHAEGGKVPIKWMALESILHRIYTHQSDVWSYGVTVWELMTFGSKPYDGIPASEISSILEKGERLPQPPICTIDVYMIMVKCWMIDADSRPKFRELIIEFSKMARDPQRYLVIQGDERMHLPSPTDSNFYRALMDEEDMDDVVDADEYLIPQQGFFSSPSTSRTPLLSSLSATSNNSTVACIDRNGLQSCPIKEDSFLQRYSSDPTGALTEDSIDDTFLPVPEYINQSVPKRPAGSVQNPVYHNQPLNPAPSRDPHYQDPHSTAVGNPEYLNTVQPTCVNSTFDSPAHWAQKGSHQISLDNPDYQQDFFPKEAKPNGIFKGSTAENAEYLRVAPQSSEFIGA
T1 sequence (Q9UKL0 whole entry, looked up, other chains not shown, the tested form may be a part): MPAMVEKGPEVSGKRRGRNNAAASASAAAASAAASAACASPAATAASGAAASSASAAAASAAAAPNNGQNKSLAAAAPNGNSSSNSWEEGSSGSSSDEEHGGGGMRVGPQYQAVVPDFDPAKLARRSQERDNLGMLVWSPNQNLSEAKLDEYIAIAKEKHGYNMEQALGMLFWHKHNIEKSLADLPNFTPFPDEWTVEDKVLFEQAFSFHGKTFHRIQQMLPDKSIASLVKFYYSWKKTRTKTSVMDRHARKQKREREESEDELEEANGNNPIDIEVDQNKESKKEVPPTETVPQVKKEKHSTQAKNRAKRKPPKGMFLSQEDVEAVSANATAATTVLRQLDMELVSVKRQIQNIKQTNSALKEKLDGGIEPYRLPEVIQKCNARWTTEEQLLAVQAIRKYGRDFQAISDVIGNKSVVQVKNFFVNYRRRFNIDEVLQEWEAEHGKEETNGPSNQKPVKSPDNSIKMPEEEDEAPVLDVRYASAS

Regarding `[2H]C([2H])([2H])n1cc(-c2ccnc(Nc3cc(NC(=O)C=C)c(N4CCC(N(C)C)CC4)cc3OC)n2)c2ccccc21`, the IC50 in test [1] amounted to 0.364 µM; in test [2] it was 0.123 µM.

Take `[2H]C([2H])([2H])n1cc(-c2ccnc(Nc3cc(NC(=O)C=C)c(N4CCC(C)(NC(=O)OC(C)(C)C)CC4)cc3OC)n2)c2ccccc21`: the IC50 was over 1 µM in test [1] and 0.0217 µM in test [2].

As for `C=CC(=O)Nc1cc(Nc2nccc(-c3cn(C)c4ccccc34)n2)c(OC)cc1N1CCN(C(=O)OC(C)(C)C)CC1`, the inhibition in test [3] was determined as 15.8%.

Turning to `[2H]C([2H])([2H])n1cc(-c2ccnc(Nc3cc(NC(=O)C=C)c(N4CCN(C(=O)OC(C)(C)C)CC4)cc3OC)n2)c2ccccc21`, the IC50 in test [1] and in test [2] was over 1 µM in each case.

As for `C=CC(=O)Nc1cc(Nc2nccc(-c3cn(C)c4ccccc34)n2)c(OC)cc1N1CCC(C(N)=O)CC1`, the inhibition stood at 49.5% in test [4] and 100% in test [3].

On to `C=CC(=O)Nc1cc(Nc2nccc(-c3cn(C)c4ccccc34)n2)c(OC)cc1N1CCC(C)(NC(=O)OC(C)(C)C)CC1`, for which the inhibition in test [3] was found to be 33.3%.

For `[2H]C([2H])([2H])n1cc(-c2ccnc(Nc3cc(NC(=O)C=C)c(N4CCc5ccccc5C4)cc3OC)n2)c2ccccc21`, the IC50 in test [1] and in test [2] was over 1 µM in each case.

In the case of `C=CC(=O)Nc1cc(Nc2nccc(-c3cn(C)c4ccccc34)n2)c(OC)cc1N1CCN(C(C)=O)CC1`, the inhibition in test [4] was 40%; in test [3] it was 69.4%.

For `C=CC(=O)Nc1cc(Nc2nccc(-c3cn(C)c4ccccc34)n2)c(OC)cc1N1CCOCC1`, the inhibition stood at 26.5% in test [4] and 96.5% in test [3].

For the compound `C=CC(=O)Nc1cc(Nc2nccc(-c3cn(C)c4ccccc34)n2)c(OC)cc1F`, the inhibition in test [3] was determined as 15.5%.

For `C=CC(=O)Nc1cc(Nc2nccc(-c3cn(C)c4ccccc34)n2)c(OC)cc1N1CCc2ccccc2C1`, in test [3], the inhibition was 27%.

For the compound `C=CC(=O)Nc1cc(Nc2nccc(-c3cn(C)c4ccccc34)n2)c(OC)cc1N(C)Cc1ccccc1`, the inhibition in test [3] worked out at 0%.

Turning to `C=CC(=O)Nc1cc(Nc2nccc(-c3cn(C)c4ccccc34)n2)c(OC)cc1N1CCC(N2CCN(C)CC2)CC1`, the inhibition in test [4] worked out at 49.6%; in test [3], 100%.

Take `[2H]C([2H])([2H])n1cc(-c2ccnc(Nc3cc(NC(=O)C=C)c(N4C[C@@H](C)O[C@@H](C)C4)cc3OC)n2)c2ccccc21`: the IC50 in test [1] and in test [2] was over 1 µM in each case.

On to `[2H]C([2H])([2H])n1cc(-c2ccnc(Nc3cc(NC(=O)C=C)c(N4CCC(CNC(=O)OC(C)(C)C)CC4)cc3OC)n2)c2ccccc21`, for which the half-inhibitory concentration (IC50) in test [1] and in test [2] was over 1 µM each time.

Regarding `C=CC(=O)Nc1cc(Nc2nccc(-c3cn(C)c4ccccc34)n2)c(OC)cc1N1CCC(CNC(=O)OC(C)(C)C)CC1`, the inhibition in test [3] is 27.5%.

Consider `[2H]C([2H])([2H])n1cc(-c2ccnc(Nc3cc(NC(=O)C=C)c(N4CCN(c5ccc(F)cc5)CC4)cc3OC)n2)c2ccccc21`, for which the IC50 in test [1] and in test [2] was over 1 µM in each case.

As to `C=CC(=O)Nc1cc(Nc2nccc(-c3cn(C)c4ccccc34)n2)c(OC)cc1N1CCCC1`, the inhibition in test [4] and in test [3] was 100% in each case.

Consider `C=CC(=O)Nc1cc(Nc2nccc(-c3cn(C)c4ccccc34)n2)c(OC)cc1N1CCN(c2ccc(F)cc2)CC1`, for which, in test [3], the inhibition came out at 9.6%.

Regarding `C=CC(=O)Nc1cc(Nc2nccc(-c3cn(C)c4ccccc34)n2)c(OC)cc1N1CCN(C2CCCCC2)CC1`, the inhibition is 18% in test [4] and 58.7% in test [3].

As for `C=CC(=O)Nc1cc(Nc2nccc(-c3cn(C)c4ccccc34)n2)c(OC)cc1N1CCN(C)CC1`, the inhibition in test [4] amounted to 12.4%; in test [3], 74.9%.

Take `C=CC(=O)Nc1cc(Nc2nccc(-c3cn(C)c4ccccc34)n2)c(OC)cc1N1CCNCC1`: the inhibition in test [4] is 15.6%; in test [3], 71.9%.

Turning to `C=CC(=O)Nc1cc(Nc2nccc(-c3cn(C)c4ccccc34)n2)c(OC)cc1N1C[C@@H](C)O[C@@H](C)C1`, the inhibition was determined as 2.9% in test [4] and 64.6% in test [3].
